Structures are written as SMILES.

The values that follow come from US12617769B2, “Chemical compound as thyroid hormone beta receptor agonist and use thereof” (SUNSHINE LAKE PHARMA CO., LTD., priority 2019, dated 2026).

One test deals with T1, TRβ (Homo sapiens, UniProt P10828).
T1 construct: Then 5 μL of 4×TRα-LBD or TRP-LBD; purchased Invitrogen PV4686
T1 sequence (P10828 217-461 limits assumed): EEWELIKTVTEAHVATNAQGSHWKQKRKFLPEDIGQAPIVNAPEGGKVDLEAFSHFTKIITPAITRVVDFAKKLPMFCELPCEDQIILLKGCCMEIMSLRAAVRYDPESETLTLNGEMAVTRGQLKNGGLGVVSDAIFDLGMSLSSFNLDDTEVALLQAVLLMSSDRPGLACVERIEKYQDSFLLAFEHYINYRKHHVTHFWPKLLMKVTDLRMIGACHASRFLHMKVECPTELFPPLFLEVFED
As to the kind of experiment: In vitro binding activity, LanthaScreen TR-FRET Thyroid Receptor beta Coactivator Assay. Particulars: TRβ-LBD. As for the experimental part:
(§1) 2. Detection of TRα or TRβ Binding Activity In Vitro of the Compound of the Present Invention
(§2) • LanthaScreen TR-FRET Thyroid Receptor beta Coactivator Assay kit was purchased from Invitrogen, Cat. No. PV4686; • LanthaScreen TR-FRET Thyroid Receptor alfa Coactivator Assay kit was purchased from Invitrogen, Cat. No. PV4687. Test Method:
(§3) This method was tested using LanthaScreen TR-FRET Thyroid Receptor beta/alfa Coactivator Assay kit. The test compound was dissolved in DMSO and diluted three-fold to obtain a total of 10 concentrations, then the compounds were diluted into solutions containing 2% DMSO with TR-FRET Coregulator Buffer C in the kit. 10 μL of the compounds containing 2% DMSO were taken to a 384-well plate. Then 5 μL of 4×TRα-LBD or TRP-LBD and 5 μL of a mixture containing 0.4 μM fluorescein-SRC2-2 and 8 nM Tb anti-GST antibody were added to each well. After mixing well, the compounds were incubated at room temperature in the dark for 1 h. After 1 h, the fluorescence value (RFU) was read at 520 nm and 495 nm using PHERAstar FSX microplate reader from BMG LABTECH. The emission signal at 520 nm was divided by the emission signal at 495 nm to calculate the TR-FRET ratio.
(In general: TR-FRET usually uses a lanthanide donor and a delayed reading to cut background.)

The next test concerns the target T2, TRα (Homo sapiens, UniProt P10827).
T2 construct: Then 5 μL of 4×TRα-LBD or TRP-LBD; purchased Invitrogen PV4687
As to the kind of experiment: In vitro binding activity, LanthaScreen TR-FRET Thyroid Receptor alfa Coactivator Assay. Particulars: TRα-LBD. As for the experimental part:
as §1, §2, §3

T2 sequence (P10827 163-410 isoform P10827-2 limits assumed, other chains not shown): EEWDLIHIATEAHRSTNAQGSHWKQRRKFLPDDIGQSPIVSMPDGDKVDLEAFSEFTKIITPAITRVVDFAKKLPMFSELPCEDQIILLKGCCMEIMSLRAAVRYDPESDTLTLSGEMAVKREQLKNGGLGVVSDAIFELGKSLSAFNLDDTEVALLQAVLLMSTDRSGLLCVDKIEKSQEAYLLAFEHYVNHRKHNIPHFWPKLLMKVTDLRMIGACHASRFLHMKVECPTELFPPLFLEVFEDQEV

Regarding `N#Cc1nn(-c2cc(Cl)c(Oc3ccc(=O)n(Cc4ccccc4)c3)c(Cl)c2)c(=O)[nH]c1=O` [Example 1, 2-[4-[(1-benzyl-6-oxo-1,6-dihydropyridin-3-yl)oxy]-3,5-dichlorophenyl]-3,5-dioxo-1,2,4-triazine-6-carbonitrile], the figures for the 50% effective concentration (EC50) at TRβ and at TRα were 60 nM and 3030 nM, respectively.
The corresponding values for `N#Cc1nn(-c2cc(Cl)c(Oc3ccc(=O)n(Cc4ccccc4)n3)c(Cl)c2)c(=O)[nH]c1=O` [Example 2, 2-[4-(1-benzyl-6-oxo-1,6-dihydropyridazin-3-yl)oxy-3,5-dichlorophenyl]-3,5-dioxo-1,2,4-triazine-6-carbonitrile] are greater than 10000 nM and greater than 100000 nM.
For `CC(C)n1cc(Oc2c(Cl)cc(-n3nc(C#N)c(=O)[nH]c3=O)cc2Cl)ccc1=O` [Example 4, 2-[3,5-dichloro-4-[(1-isopropyl-6-oxo-1,6-dihydropyridin-3-yl)oxy]phenyl]-3,5-dioxo-1,2,4-triazine-6-carbonitrile], the values for the EC50 on TRβ and at TRα were 500 nM and greater than 100000 nM, respectively.
The corresponding values for `N#Cc1nn(-c2cc(Cl)c(Oc3ccc(=O)n(-c4ccc(F)cc4)n3)c(Cl)c2)c(=O)[nH]c1=O` [Example 8, 2-[3,5-dichloro-4-[1-(4-fluorophenyl)-6-oxo-1,6-dihydropyridazin-3-yl]oxy-phenyl]-3,5-dioxo-1,2,4-triazine-6-carbonitrile] are greater than 10000 nM and greater than 100000 nM.
On to `CC(c1ccccc1)n1nc(Oc2c(Cl)cc(-n3nc(C#N)c(=O)[nH]c3=O)cc2Cl)ccc1=O` (stereo not shown) [Example 9, 2-[3,5-dichloro-4-[[6-oxo-1-(1-phenethyl)-1,6-dihydropyridazin-3-yl]oxyl]phenyl]-3,5-dioxo-1,2,4-triazine-6-carbonitrile], for which the EC50 on TRβ is greater than 10000 nM; at TRα, greater than 100000 nM.
Taken in the same sequence, the figures for `N#Cc1nn(-c2cc(Cl)c(Oc3cnc(=O)n(Cc4ccccc4)c3)c(Cl)c2)c(=O)[nH]c1=O` [Example 10, 2-[4-(1-benzyl-2-oxo-1,2-dihydropyrimidin-5-yl)oxy-3,5-dichlorophenyl]-3,5-dioxo-1,2,4-triazine-6-carbonitrile] were greater than 10000 nM and greater than 100000 nM.
Regarding `N#Cc1nn(-c2cc(Cl)c(Oc3ccc(=O)n(Cc4ccc(F)c(F)c4)c3)c(Cl)c2)c(=O)[nH]c1=O` [Example 11, 2-[3,5-dichloro-4-[[1-(3,4-difluorobenzyl)-6-oxo-1,6-dihydropyridin-3-yl]oxy]phenyl]-3,5-dioxo-1,2,4-triazine-6-carbonitrile], the half-maximal effective concentration (EC50) on TRβ was determined as 22 nM; at TRα, 670 nM.
The corresponding values for `N#Cc1nn(-c2cc(Cl)c(Oc3ccc(=O)n(Cc4ccc(OC(F)(F)F)cc4)c3)c(Cl)c2)c(=O)[nH]c1=O` [Example 12, 2-[3,5-dichloro-4[[6-oxo-1-[4-(trifluoromethoxy)benzyl]-1,6-dihydropyridin-3-yl]oxy]phenyl]-3,5-dioxo-1,2,4-triazine-6-carbonitrile] are 1340 nM and greater than 100000 nM.
Taken in the same sequence, the figures for `N#Cc1nn(-c2cc(Cl)c(Oc3ccc(=O)n(Cc4ccc(F)cc4)c3)c(Cl)c2)c(=O)[nH]c1=O` [Example 13, 2-[3,5-dichloro-4-[[1-(4-fluorobenzyl)-6-oxo-1,6-dihydropyridin-3-yl]oxy]phenyl]-3,5-dioxo-1,2,4-triazine-6-carbonitrile] were 20 nM and 600 nM.
The corresponding values for `N#Cc1nn(-c2cc(Cl)c(Oc3ccc(=O)n(Cc4cccc(C(F)(F)F)c4)c3)c(Cl)c2)c(=O)[nH]c1=O` [Example 14, 2-[3,5-dichloro-4-[[6-oxo-1-[3-(trifluoromethyl)benzyl]-1,6-dihydropyridin-3-yl]oxy]phenyl]-3,5-dioxo-1,2,4-triazine-6-carbonitrile] are 350 nM and 5740 nM.
For the molecule `CCOC(=O)Cn1cc(Oc2c(Cl)cc(-n3nc(C#N)c(=O)[nH]c3=O)cc2Cl)ccc1=O` [Example 17, Ethyl 2-[5-[2,6-dichloro-4-(6-cyano-3,5-dioxo-1,2,4-triazin-2-yl)phenoxy]-2-oxy-pyridine-1(2H)-yl] acetate], the results for the EC50 at TRβ and at TRα were 350 nM and 15400 nM, respectively.
Regarding `COCCn1cc(Oc2c(Cl)cc(-n3nc(C#N)c(=O)[nH]c3=O)cc2Cl)ccc1=O` [Example 18, 2-[3,5-dichloro-4-[[1-(2-methoxyethyl)-6-oxo-1,6-dihydropyridin-3-yl]oxy]phenyl]-3,5-dioxo-1,2,4-triazine-6-carbonitrile], the results for the EC50 on TRβ and at TRα were 86 nM and 1350 nM, respectively.
`CCOC(=O)Cn1nc(Oc2c(Cl)cc(-n3nc(C#N)c(=O)[nH]c3=O)cc2Cl)ccc1=O` [Example 19, Ethyl 2-[3-[2,6-dichloro-4-(6-cyano-3,5-dioxo-1,2,4-triazin-2-yl)phenoxy]-6-oxy-pyridazine-1(6H)-yl] acetate]: the EC50 is greater than 10000 nM at TRβ and greater than 100000 nM at TRα.
The corresponding values for `N#Cc1nn(-c2cc(Cl)c(Oc3cnc(=O)n(Cc4ccc(F)cc4)c3)c(Cl)c2)c(=O)[nH]c1=O` [Example 20, 2-[3,5-dichloro-4-[1-(4-fluorobenzyl)-2-oxo-1,2-dihydropyrimidin-5-yl]oxy-phenyl]-3,5-dioxo-1,2,4-triazine-6-carbonitrile] are 7370 nM and greater than 100000 nM.
As to `COc1cccc(Cn2cc(Oc3c(Cl)cc(-n4nc(C#N)c(=O)[nH]c4=O)cc3Cl)ccc2=O)c1` [Example 22, 2-[3,5-dichloro-4-[[1-[(3-methoxyphenyl)methyl]-6-oxopyridin-3-yl]oxy]phenyl]-3,5-dioxo-1,2,4-triazine-6-carbonitrile], the EC50 on TRβ is 690 nM; at TRα, greater than 100000 nM.
Consider `Cc1ccc(Cn2cc(Oc3c(Cl)cc(-n4nc(C#N)c(=O)[nH]c4=O)cc3Cl)ccc2=O)cc1` [Example 23, 2-[3,5-dichloro-4-[[1-(4-methylbenzyl)-6-oxo-1,6-dihydropyridin-3-yl]oxy]phenyl]-3,5-dioxo-1,2,4-triazine-6-carbonitrile], for which the EC50 was 60 nM at TRβ and 3000 nM on TRα.
Taken in the same sequence, the figures for `CCOC(=O)C(C)n1cc(Oc2c(Cl)cc(-n3nc(C#N)c(=O)[nH]c3=O)cc2Cl)ccc1=O` (stereo not shown) [Example 24, Ethyl 2-(5-(2,6-dichloro-4-(6-cyano-3,5-dioxo-1,2,4-triazin-2-yl)phenoxy)-2-oxypyridine-1(2H)-yl)propionate] were 20 nM and 570 nM.
The corresponding values for `N#Cc1nn(-c2cc(Cl)c(Oc3ccc(=O)n(CC4CCOCC4)c3)c(Cl)c2)c(=O)[nH]c1=O` [Example 25, 2-[3,5-dichloro-4-[[6-oxo-1-((tetrahydropyran-4-yl)methyl)-1,6-dihydropyridin-3-yl]oxy]phenyl]-3,5-dioxo-1,2,4-triazine-6-carbonitrile] are 140 nM and 6660 nM.
The corresponding values for `CCOC(=O)c1nn(-c2cc(Cl)c(Oc3ccc(=O)n(Cc4ccccc4)c3)c(Cl)c2)c(=O)[nH]c1=O` [Example 27, Ethyl 2-(4-((1-benzyl-6-oxo-1,6-dihydropyridin-3-yl)oxy)-3,5-dichlorophenyl)-3,5-dioxo-1,2,4-triazine-6-carboxylate] are 1490 nM and greater than 100000 nM.
For the molecule `NC(=O)c1nn(-c2cc(Cl)c(Oc3ccc(=O)n(Cc4ccccc4)c3)c(Cl)c2)c(=O)[nH]c1=O` [Example 30, 2-(4-((1-benzyl-6-oxo-1,6-dihydropyridin-3-yl)oxy)-3,5-dichlorophenyl)-3,5-dioxo-2,3,4,5-tetrahydro-1,2,4-triazine-6-carboxamide], the EC50 on TRβ is 3760 nM; on TRα, greater than 100000 nM.
The corresponding values for `COc1ccc(Cn2cc(Oc3c(Cl)cc(-n4nc(C#N)c(=O)[nH]c4=O)cc3Cl)ccc2=O)cc1` [Example 31, 2-(3,5-dichloro-4-((1-(4-methoxybenzyl)-6-oxo-1,6-dihydropyridin-3-yl)oxy)phenyl)-3,5-dioxo-2,3,4,5-tetrahydro-1,2,4-triazine-6-carbonitrile] are 94 nM and 4400 nM.
Taken in the same sequence, the figures for `N#Cc1nn(-c2cc(Cl)c(Oc3ccc(=O)n(CCO)c3)c(Cl)c2)c(=O)[nH]c1=O` [Example 32, 2-(3,5-dichloro-4-((1-(2-hydroxyethyl)-6-oxo-1,6-dihydropyridin-3-yl)oxy)phenyl)-3,5-dioxo-2,3,4,5-tetrahydro-1,2,4-triazine-6-carbonitrile] were 1520 nM and 22700 nM.
Taken in the same sequence, the figures for `O=c1[nH]c(=O)n(-c2cc(Cl)c(Oc3ccc(=O)n(Cc4ccccc4)c3)c(Cl)c2)nc1CO` [Example 33, 2-(4-((1-benzyl-6-oxo-1,6-dihydropyridin-3-yl)oxy)-3,5-dichlorophenyl)-6-(hydroxymethyl)-1,2,4-triazine-3,5(2H,4H)-dione] were 231 nM and 3230 nM.

Broadly, the EC50 is the concentration giving half of the maximal effect. A high value points to weaker potency.
